Laboratory results published in article PMC9920912, “In Vitro Binding Effects of the Ecdysone Receptor−Binding Domain and PonA in Plutella xylostella” (Molecules, 2023).
Blank lines part the entries; values can stand above or below the molecule they belong to.

Tests used:
[1] = target: T1, ecdysone receptor (PxGST−EcR) (Plutella xylostella, UniProt G5CV07); assay: biochemical
T1 sequence (G5CV07 285-528): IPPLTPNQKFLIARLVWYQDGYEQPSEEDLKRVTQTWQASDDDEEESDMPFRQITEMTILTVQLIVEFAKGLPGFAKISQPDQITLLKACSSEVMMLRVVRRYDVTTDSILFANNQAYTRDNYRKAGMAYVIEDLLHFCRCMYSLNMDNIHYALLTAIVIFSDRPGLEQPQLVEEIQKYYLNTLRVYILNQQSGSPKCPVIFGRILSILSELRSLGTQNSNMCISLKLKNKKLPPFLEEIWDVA
T1 sequence (G5CV12 133-414 partner limits assumed): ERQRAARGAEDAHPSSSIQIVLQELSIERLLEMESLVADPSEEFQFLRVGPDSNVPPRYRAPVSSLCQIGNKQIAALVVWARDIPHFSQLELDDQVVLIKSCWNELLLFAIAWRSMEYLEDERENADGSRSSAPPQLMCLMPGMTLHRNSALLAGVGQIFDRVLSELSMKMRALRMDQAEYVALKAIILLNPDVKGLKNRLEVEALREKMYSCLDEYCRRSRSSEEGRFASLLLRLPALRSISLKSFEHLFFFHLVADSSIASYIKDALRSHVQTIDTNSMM

[2] = target: T1, ecdysone receptor (PxGST−EcR); assay: competitive radioligand binding, displacement of [3H]PonA from purified EcR/USP dimer; design: truncated LBD-containing functional domain (D and E domains) fused to GST; with USP (PxGST−USP)
[3] = target: T2, PxGST-EcR (Plutella xylostella ecdysone receptor, truncated LBD-containing functional domain fused to … (Plutella xylostella, UniProt G5CV07)); assay: TEM and zeta potential of co-incubated proteins, supported by enhanced [3H]PonA binding
T2 chain: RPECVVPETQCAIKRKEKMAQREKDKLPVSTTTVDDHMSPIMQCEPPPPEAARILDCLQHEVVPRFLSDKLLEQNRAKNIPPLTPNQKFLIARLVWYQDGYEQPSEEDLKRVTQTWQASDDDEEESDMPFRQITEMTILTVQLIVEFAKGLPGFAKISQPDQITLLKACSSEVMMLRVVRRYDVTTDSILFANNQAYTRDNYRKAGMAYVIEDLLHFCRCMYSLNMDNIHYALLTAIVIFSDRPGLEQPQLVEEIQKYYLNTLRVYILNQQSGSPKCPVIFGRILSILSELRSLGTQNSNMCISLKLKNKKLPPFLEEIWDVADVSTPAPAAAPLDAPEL

Molecule: CC(C)CC[C@@H](O)[C@](C)(O)[C@H]1CC[C@@]2(O)C3=CC(=O)[C@@H]4C[C@@H](O)[C@@H](O)C[C@]4(C)[C@H]3CC[C@]12C [PonA]
- Kd [1]: 2.3 nM

Molecule: CCc1ccc(C(=O)NN(C(=O)c2cc(C)cc(C)c2)C(C)(C)C)cc1 [tebufenozide]
- IC50 [2]: 80.6 nM

- binding result [3]: binds
B1: PxGST-USP (Plutella xylostella ultraspiracle, truncated LBD-containing functional domain fused to glutathione-S-transferase) (protein)
chain: KREAVQEERQRAARGAEDAHPSSSIQIVLQELSIERLLEMESLVADPSEEFQFLRVGPDSNVPPRYRAPVSSLCQIGNKQIAALVVWARDIPHFSQLELDDQVVLIKSCWNELLLFAIAWRSMEYLEDERENADGSRSSAPPQLMCLMPGMTLHRNSALLAGVGQIFDRVLSELSMKMRALRMDQAEYVALKAIILLNPDVKGLKNRLEVEALREKMYSCLDEYCRRSRSSEEGRFASLLLRLPALRSISLKSFEHLFFFHLVADSSIASYIKDALRSHVQTIDTNSMM
